Test results published in the NIST ThermoML archive (doi:10.1016/j.jct.2017.08.024).

What was measured:
[1] = for surface tension liquid-gas: wilhelmy plate; for viscosity: 101.33 kPa, Liquid, Concentric cylinders viscometry
[2] = wn = mass fraction of the nth substance listed; details: for surface tension liquid-gas: wilhelmy plate; for viscosity: 101 kPa, Liquid, Concentric cylinders viscometry

NCCO [2-aminoethan-1-ol]
[1]
Details | surface tension liquid-gas [mN/m] | viscosity [mPa·s]
303.2 K | 47.7 | 14.47
313.2 K | 45.9 | 9.87
323.2 K | 44.2 | 6.79

NCCO [2-aminoethan-1-ol] + O
[2]
Details | surface tension liquid-gas, w1 = 0.2 [mN/m] | surface tension liquid-gas, w1 = 0.3 [mN/m] | surface tension liquid-gas, w1 = 0.4 [mN/m] | surface tension liquid-gas, w1 = 1 [mN/m] | viscosity, w1 = 0.2 [mPa·s] | viscosity, w1 = 0.3 [mPa·s] | viscosity, w1 = 0.4 [mPa·s] | viscosity, w1 = 1 [mPa·s]
303.2 K | 62.1 | 59.7 | 57.8 | 47.7 | 1.51 | 2.11 | 3.12 | 14.47
313.2 K | 60.4 | 58.4 | 56.3 | 45.9 | 1.18 | 1.63 | 2.29 | 9.87
323.2 K | 58.9 | 56.4 | 54.6 | 44.2 | 0.97 | 1.31 | 1.79 | 6.79

OCCNCCO [diethanolamine]
[1]
Details | surface tension liquid-gas [mN/m] | viscosity [mPa·s]
303.2 K | 46 | 381.21
313.2 K | 44.1 | 188.64
323.2 K | 42.8 | 105.98

OCCNCCO [diethanolamine] + O
[2]
Details | surface tension liquid-gas, w1 = 0.2 [mN/m] | surface tension liquid-gas, w1 = 0.3 [mN/m] | surface tension liquid-gas, w1 = 0.4 [mN/m] | surface tension liquid-gas, w1 = 1 [mN/m] | viscosity, w1 = 0.2 [mPa·s] | viscosity, w1 = 0.3 [mPa·s] | viscosity, w1 = 0.4 [mPa·s] | viscosity, w1 = 1 [mPa·s]
303.2 K | 63.3 | 60.5 | 58.3 | 46 | 1.64 | 2.57 | 4.27 | 381.21
313.2 K | 62.1 | 58.8 | 56.6 | 44.1 | 1.29 | 1.98 | 3.01 | 188.64
323.2 K | 59.9 | 57.4 | 54.7 | 42.8 | 1.03 | 1.42 | 2.27 | 105.98

CO [methanol]
[1]
Details | surface tension liquid-gas [mN/m] | viscosity [mPa·s]
303.2 K | 21.7 | 0.51
313.2 K | 20.9 | 0.44
323.2 K | 20 | 0.39

O [water]
[1]
Details | surface tension liquid-gas [mN/m] | viscosity [mPa·s]
303.2 K | 71.1 | 0.8
313.2 K | 69.4 | 0.65
323.2 K | 67.7 | 0.55

O [water] + NCCO
[2], w2 = 0
Details | surface tension liquid-gas [mN/m] | viscosity [mPa·s]
303.2 K | 71.1 | 0.8
313.2 K | 69.4 | 0.65
323.2 K | 67.7 | 0.55

O [water] + OCCNCCO
[2], w2 = 0
Details | surface tension liquid-gas [mN/m] | viscosity [mPa·s]
303.2 K | 71.1 | 0.8
313.2 K | 69.4 | 0.65
323.2 K | 67.7 | 0.55
